Results reported in ChEMBL document CHEMBL1151945 (J Med Chem, 2009).

Legend:
[1] = target: Thymidylate synthase (Escherichia coli, UniProt C3SWJ7)
[2] = target: T1, Bifunctional dihydrofolate reductase-thymidylate synthase (Toxoplasma gondii, UniProt Q07422)
T1 sequence (Q07422 whole entry): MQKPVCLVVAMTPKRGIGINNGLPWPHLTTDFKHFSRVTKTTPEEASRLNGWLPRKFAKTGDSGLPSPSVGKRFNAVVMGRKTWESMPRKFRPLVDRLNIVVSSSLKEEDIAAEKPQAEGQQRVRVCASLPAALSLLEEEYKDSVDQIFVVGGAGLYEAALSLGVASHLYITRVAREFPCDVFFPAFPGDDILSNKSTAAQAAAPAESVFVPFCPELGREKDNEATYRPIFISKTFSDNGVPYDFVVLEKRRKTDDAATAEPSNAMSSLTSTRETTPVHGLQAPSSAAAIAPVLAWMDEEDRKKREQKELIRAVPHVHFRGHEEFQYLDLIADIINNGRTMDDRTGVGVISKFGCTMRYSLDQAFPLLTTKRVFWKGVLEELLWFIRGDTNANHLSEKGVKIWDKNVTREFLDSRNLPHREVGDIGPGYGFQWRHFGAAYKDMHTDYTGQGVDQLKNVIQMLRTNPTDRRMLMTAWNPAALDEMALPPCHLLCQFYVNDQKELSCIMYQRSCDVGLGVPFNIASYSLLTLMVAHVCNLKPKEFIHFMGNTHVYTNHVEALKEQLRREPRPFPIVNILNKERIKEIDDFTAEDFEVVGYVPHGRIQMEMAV

[3] = target: T2, Dihydrofolate reductase (Homo sapiens, UniProt P00374)
T2 sequence (P00374 whole entry): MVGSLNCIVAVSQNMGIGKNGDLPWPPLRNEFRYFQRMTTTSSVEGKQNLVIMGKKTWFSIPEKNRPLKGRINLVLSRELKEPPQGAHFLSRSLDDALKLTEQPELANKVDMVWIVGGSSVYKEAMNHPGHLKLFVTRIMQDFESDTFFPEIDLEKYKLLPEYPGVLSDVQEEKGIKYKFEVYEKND

[4] = target: T1, Bifunctional dihydrofolate reductase-thymidylate synthase; remark: listed apart in the source
[5] = target: Thymidylate synthase (Homo sapiens, UniProt P04818)
Sequence of Thymidylate synthase (Homo sapiens, UniProt P04818) (P04818 whole entry): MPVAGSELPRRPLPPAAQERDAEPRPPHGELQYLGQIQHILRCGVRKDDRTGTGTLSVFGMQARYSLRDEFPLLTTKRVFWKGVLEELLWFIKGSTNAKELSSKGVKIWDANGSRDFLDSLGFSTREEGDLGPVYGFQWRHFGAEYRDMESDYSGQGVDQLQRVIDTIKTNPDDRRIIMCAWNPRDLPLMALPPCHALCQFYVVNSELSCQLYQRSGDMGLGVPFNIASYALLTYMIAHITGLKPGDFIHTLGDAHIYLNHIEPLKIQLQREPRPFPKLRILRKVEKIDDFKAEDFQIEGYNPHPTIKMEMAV

[6] = system: CCRF-CEM; assay: cells; details: Homo sapiens
[7] = system: MOLT-4; assay: cells; details: Homo sapiens
[8] = system: NCI-H460; assay: cells; details: Homo sapiens
[9] = cells; details: Homo sapiens, NCI-H525
[10] = system: NCI-H23; assay: cells; details: Homo sapiens
[11] = system: HCC 2998; assay: cells; details: Homo sapiens
[12] = system: HCT-116; assay: cells; details: Homo sapiens
[13] = system: LOX IMVI; assay: cells; details: Homo sapiens
[14] = system: M14; assay: cells; details: Homo sapiens
[15] = system: OVCAR-8; assay: cells; details: Homo sapiens
[16] = cells; details: Homo sapiens, 786-0
[17] = system: SN12C; assay: cells; details: Homo sapiens
[18] = target: T3, Dihydrofolate reductase (Escherichia coli) (UniProt P0ABQ4); assay: Inhibition of Escherichia coli dihydrofolate reductase at […]
T3 sequence (whole entry): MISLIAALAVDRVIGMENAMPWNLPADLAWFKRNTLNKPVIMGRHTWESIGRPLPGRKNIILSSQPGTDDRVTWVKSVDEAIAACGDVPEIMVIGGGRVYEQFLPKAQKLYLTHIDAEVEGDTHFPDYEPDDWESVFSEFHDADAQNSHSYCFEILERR

[19] = target: Thymidylate synthase (Escherichia coli) (UniProt C3SWJ7); assay: Inhibition of Escherichia coli thymidylate synthase at 23 uM
Sequence of Thymidylate synthase (Escherichia coli) (C3SWJ7 1-264): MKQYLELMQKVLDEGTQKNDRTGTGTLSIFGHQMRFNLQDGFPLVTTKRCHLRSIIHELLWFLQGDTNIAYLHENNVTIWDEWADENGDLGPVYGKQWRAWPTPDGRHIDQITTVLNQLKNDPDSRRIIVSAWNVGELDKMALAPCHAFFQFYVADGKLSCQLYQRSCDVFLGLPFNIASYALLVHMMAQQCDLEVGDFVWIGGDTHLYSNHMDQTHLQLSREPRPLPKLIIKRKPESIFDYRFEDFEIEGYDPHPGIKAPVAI

[20] = target: T3, Dihydrofolate reductase (Escherichia coli); assay: Inhibition of Escherichia coli dihydrofolate reductase at 28 uM
[21] = target: T4, Bifunctional dihydrofolate reductase-thymidylate synthase (Toxoplasma gondii) (UniProt Q07422); details: 23 uM
T4 sequence (whole entry): T1 sequence (Q07422 whole entry)

[22] = target: T3, Dihydrofolate reductase (Escherichia coli); assay: Inhibition of Escherichia coli dihydrofolate reductase at 27 uM
[23] = target: T3, Dihydrofolate reductase (Escherichia coli); assay: Inhibition of Escherichia coli dihydrofolate reductase at 31 uM
[24] = system: HL-60(TB); assay: cells; details: Homo sapiens
[25] = target: T3, Dihydrofolate reductase (Escherichia coli); assay: Inhibition of Escherichia coli dihydrofolate reductase at 3 uM

Sequence of Thymidylate synthase (Escherichia coli, UniProt C3SWJ7) (C3SWJ7 whole entry): as the sequence (C3SWJ7 1-264) above

Row | Structure (SMILES) | IC50 [1] | IC50 [2] | IC50 [3] | IC50 [4] | IC50 [5] | also measured
1 | CCc1sc2nc(N)[nH]c(=O)c2c1Sc1ccncc1 | 2 µM | 1.7 µM | 0.35 µM | 0.017 µM |  | 
2 | CCc1sc2nc(N)[nH]c(=O)c2c1Sc1ccc(Cl)cc1 | 2.5 µM |  | 0.3 µM |  | 0.75 µM | 
3 | Cc1sc2nc(N)[nH]c(=O)c2c1Sc1ccc(C(=O)N[C@@H](CCC(=O)O)C(=O)O)cc1 |  |  |  |  |  | GI50 [6]: 94.5 µM; GI50 [7]: > 100 µM; GI50 [8]: 41.2 µM; GI50 [9]: > 100 µM; GI50 [10]: > 100 µM; GI50 [11]: > 100 µM; GI50 [12]: > 100 µM; GI50 [13]: 65.6 µM; GI50 [14]: > 100 µM; GI50 [15]: > 100 µM; GI50 [16]: > 100 µM; GI50 [17]: > 100 µM
4 | CCc1sc2nc(N)[nH]c(=O)c2c1Sc1cc(Cl)cc(Cl)c1 | 1.2 µM | 1.6 µM | 0.28 µM | 0.014 µM | 0.69 µM | inhibition [18]: 0%
5 | CCc1sc2nc(N)[nH]c(=O)c2c1Sc1ccc([N+](=O)[O-])cc1 | 1.7 µM | 1 µM | 0.26 µM | 0.0087 µM | 0.22 µM | 
6 | CCc1sc2nc(N)[nH]c(=O)c2c1Sc1cc(OC)ccc1OC | > 23 µM |  | 0.84 µM | 0.014 µM | 4.6 µM | inhibition [19]: 11%; inhibition [20]: 0%; inhibition [21]: 29%
7 | CCc1sc2nc(N)[nH]c(=O)c2c1Sc1ccccc1 | 28 µM | 8.4 µM | 2.6 µM | 0.033 µM | 5.6 µM | 
8 | CCc1sc2nc(N)[nH]c(=O)c2c1Sc1ccc(Cl)c(Cl)c1 | 2.3 µM | 1 µM | 0.29 µM | 0.0081 µM | 0.23 µM | 
9 | CCc1sc2nc(N)[nH]c(=O)c2c1Sc1ccccc1Cl | 2 µM | 2.5 µM | 0.6 µM | 0.027 µM | 1.1 µM | 
10 | CCc1sc2nc(N)[nH]c(=O)c2c1Sc1cc(OC)cc(OC)c1 | 1.8 µM | 2.3 µM | 0.54 µM | 0.024 µM | 1.2 µM | inhibition [22]: 0%
11 | CCc1sc2nc(N)[nH]c(=O)c2c1Sc1ccc2ccccc2c1 | 1.4 µM | 1.1 µM | 2.2 µM | 0.0084 µM | 2.3 µM | 
12 | CCc1sc2nc(N)[nH]c(=O)c2c1Sc1ccc(F)cc1 | 2.9 µM | 2.6 µM | 0.62 µM | 0.025 µM | 1.3 µM | inhibition [23]: 15%
13 | CCc1sc2nc(N)[nH]c(=O)c2c1Sc1ccc(Br)cc1 | 2.2 µM | 2.2 µM | 0.26 µM | 0.013 µM | 0.39 µM | 
14 | CCc1sc2nc(N)[nH]c(=O)c2c1Sc1ccc(C(=O)N[C@@H](CCC(=O)O)C(=O)O)cc1 | 0.018 µM | 0.09 µM | 0.019 µM | 0.0021 µM | 0.054 µM | GI50 [6]: 0.853 µM; GI50 [24]: 0.497 µM; GI50 [7]: 4.78 µM; GI50 [8]: 0.959 µM; GI50 [9]: 7.8 µM; GI50 [10]: 9.4 µM; GI50 [11]: 0.965 µM; GI50 [12]: 0.284 µM; GI50 [13]: 0.0909 µM; GI50 [14]: 4.32 µM; GI50 [15]: 0.579 µM; GI50 [16]: 0.817 µM; GI50 [17]: 3.31 µM
15 | CCc1sc2nc(N)[nH]c(=O)c2c1Sc1cccc(Cl)c1 | 2.3 µM | 1.8 µM | 0.3 µM | 0.012 µM | 0.38 µM | inhibition [25]: 0%
